Results as given in patent publication US20230404998A1, “Combination Therapies for Treating Cancer” (ASCENTAGE PHARMA (SUZHOU) CO., LTD., priority 2020, published 2023).
Marks after values point to notes of the source that are not given here.

Key:
Design in all cases: species or system mouse
Conditions in all cases: ABL001 60 mg/kg, Ponatinib 20 mg/kg, HQP1351 20 mg/kg
[1] = tested on: T315I orthotopic tumor model; assay: In vivo efficacy, T315I orthotopic tumor model
Experimental: (§1) In vivo efficacy was evaluated using the syngeneic mouse model derived from BaF3 cells with T315I and/or compound mutations. Tumor models were established by intravenously injecting tumor cells (1×10^5/mouse) into the caudal vein under sterile conditions. Mice were randomized into control and treatment groups with 8-10 mice per group and start the treatment from the second day post inoculation. The animal body weights were measured twice a week. The antitumor activity curves of test articles were plotted with the treatment time (day) on the X-axis, and corresponding survival rate on the Y-axis. A Log-rank (Mental-cox) test was employed to analyze the statistical significance of any difference between the treatment group and the control group. Prism version 7 (GraphPad Software Inc., San Diego, CA) was used for all statistical analysis and for graphic presentation.

[2] = tested on: F317L/T315I orthotopic tumor model; assay: In vivo efficacy, F317L/T315I orthotopic tumor model
Experimental: as §1

[3] = tested on: E255V/T315I orthotopic tumor model; assay: In vivo efficacy, E255V/T315I orthotopic tumor model
Experimental: as §1

[4] = tested on: Y253H/T315I orthotopic tumor model; assay: In vivo efficacy, Y253H/T315I orthotopic tumor model
Experimental: as §1

Compound | Median survival [1] | Survival prolongation (%) [1] | Survive/Total @ D43 [1] | Median survival [2] | Survival prolongation (%) [2] | Survive/Total @ 24 [2] | Median survival [3] | Survival prolongation (%) [3] | Survive/Total @ D26 [3] | Median survival [4] | Survival prolongation (%) [4] | Survive/Total @ 24 [4]
O=C(Nc1ccc(OC(F)(F)Cl)cc1)c1cnc(N2CC[C@@H](O)C2)c(-c2cc[nH]n2)c1 [ABL001, asciminib] | 24.5**** | 16.67% | 0/10 | 18.0 | 2.86% | 0/8 | 27.0**** | 28.57% | 0/10 | 21.0*** | 23.53% | 0/8
Cc1ccc(C(=O)Nc2ccc(CN3CCN(C)CC3)c(C(F)(F)F)c2)cc1C#Cc1cnc2cccnn12 [Ponatinib] | 27.0**** | 28.57% | 0/10 | 27.0**** | 54.29% | 1/8 | 24.5**** | 16.67% | 0/10 | 20.0** | 17.65% | 0/8
